Reference: ChEMBL document CHEMBL1275486, “Kinetic characterization of VIM-7, a divergent member of the VIM metallo-beta-lactamase family” (Antimicrob Agents Chemother, 2008)

Assays:
[1] = test system: Escherichia coli; experiment: Activity of Escherichia coli beta-lactamase VIM-1 by spectrophotometry
[2] = test system: Escherichia coli; experiment: Ratio of Kcat to Km for Escherichia coli beta-lactamase VIM-1 by spectrophotometry

SMILES | Km [1] [µM] | kcat [1] [s⁻¹] | kcat/Km [2] [M⁻¹ s⁻¹]
C[C@H]1[C@H](NC(=O)/C(=N\OC(C)(C)C(=O)O)c2csc(N)n2)C(=O)N1S(=O)(=O)O | > 1000 | < 0.01 | –
CC(=O)OCC1=C(C(=O)O)N2C(=O)[C@@H](NC(=O)Cc3cccs3)[C@H]2SC1 | 55 | 280 | 5.1e+06
CC1(C)S[C@@H]2[C@H](NC(=O)[C@H](NC(=O)N3CCNC3=O)c3ccccc3)C(=O)N2[C@H]1C(=O)O | 120 | 1500 | 1.25e+07
O=C(Cc1cccs1)N[C@@H]1C(=O)N2C(C(=O)O)=C(/C=C/c3ccc([N+](=O)[O-])cc3[N+](=O)[O-])CS[C@H]12 | 17 | 95 | 5.6e+06
CO/N=C(\C(=O)N[C@@H]1C(=O)N2C(C(=O)O)=C(COC(C)=O)CS[C@H]12)c1csc(N)n1 | 250 | 170 | 680000
CC1(C)S[C@@H]2[C@H](NC(=O)[C@H](N)c3ccccc3)C(=O)N2[C@H]1C(=O)O | 920 | 35 | 38000
